Measurements: US4247712A, “Preservation of aqueous systems with 2-chloro-3-oxobutyramide derivatives” (Givaudan Corporation, priority 1979, dated 1981)
Converted amounts (≈) assume the structure as drawn.

Columns and labels:
Assay type in all cases: cell-based
Pseudomonas aeruginosa [1] = test: Utility in water and oil emulsions (3.3% cutting oil emulsions); conditions: 28° C., weekly reinoculation, read-out: Minimum Inhibitory Concentration Range
Description: The utility of the 2-chloro-3-oxobutyramide derivatives in water and oil emulsions is illustrated below using a commercially available cutting oil. In running these tests, two-fold serial dilutions of 6% solutions of the compound in dimethylformamide was added to 3.3% cutting oil emulsions. The emulsions were prepared by diluting with water a commercially available cutting oil concentrate. The emulsions were inoculated with a culture of Pseudomonas aeruginosa and incubated at 28° C. on a rotary shaker. At weekly intervals, the emulsions were examined for bacteria by conventional streak-plate methods. The emulsions were then reinoculated with Pseudomonas aeruginosa and reincubated. […] indicate the activity range for that compound.

[2] = tested on: broad spectrum of microorganisms including gram positive bacteria, gram negative bacteria and molds; test: Antimicrobial activity, general statement in the text
Aspergillus niger [3] = test: General antimicrobial activity, 5-fold serial dilution test in agar (MIC); conditions: 168 h, 28° C., seven days, growth only at lower concentration of range, read-out: minimum inhibitory concentration (MIC), F1
Description: (§1) General antibacterial and antifungal activity was evaluated by a 5-fold serial dilution test in agar. In this test, compounds were prepared as 6% solutions in dimethylformamide or ethanol. The 6% solution was then 5-fold serially diluted in test tubes to give the desired concentrations when mixed with agar and poured into sterile Petri dishes. Tryptone glucose extract agar was used for the bacterial testing; mildew glucose agar for the fungal testing. The bacterial plates were spot inoculated with 24-hour nutrient broth cultures and incubated at 37° C. for 48 hours. The fungal plates were spot inoculated with spore suspensions and incubated at 28° C. for seven days. At the end of the incubation periods, all plates were examined for growth. The minimum inhibitory concentration (MIC) for each organism is expressed in Table I. In the ranges presented, growth is observed only at the lower concentration.
(§2) The activity is presented in Tabular Form (Table I) using the following key.

Proteus vulgaris = test: as above; conditions: 37° C., 48 hours, growth only at lower concentration of range, read-out: minimum inhibitory concentration (MIC), B4
Description: as §1, §2

Bacillus subtilis = test: as above; conditions: 37° C., 48 hours, growth only at lower concentration of range, read-out: minimum inhibitory concentration (MIC), B5
Description: as §1, §2

Aspergillus oryzae = test: as above; conditions: 168 h, 28° C., seven days, growth only at lower concentration of range, read-out: minimum inhibitory concentration (MIC), F2
Description: as §1, §2

Pseudomonas aeruginosa [4] = test: as above; conditions: 37° C., 48 hours, growth only at lower concentration of range, read-out: minimum inhibitory concentration (MIC), B3
Description: as §1, §2

Penicillium piscarium = test: as above; conditions: 168 h, 28° C., seven days, growth only at lower concentration of range, read-out: minimum inhibitory concentration (MIC), F3
Description: as §1, §2

Escherichia coli = test: as above; conditions: 37° C., 48 hours, growth only at lower concentration of range, read-out: minimum inhibitory concentration (MIC), B2
Description: as §1, §2

Aureobasidium pullulans = test: as above; conditions: 168 h, 28° C., seven days, growth only at lower concentration of range, read-out: minimum inhibitory concentration (MIC), F4
Description: as §1, §2

Staphylococcus aureus = test: as above; conditions: 37° C., 48 hours, growth only at lower concentration of range, read-out: minimum inhibitory concentration (MIC), B1
Description: as §1, §2

Aspergillus niger [5] = test: Utility as a cosmetic preservative (cosmetic lotion); conditions: weekly reinoculation
Description: (§3) The 2-Chloro-3-oxobutyramide derivatives are effective cosmetic preservatives. Two-fold serial dilutions of 6% solutions of the 2-haloacetoacetic acid derivatives in dimethylformamide were added to a cosmetic lotion of the following formulation: |Stearic acid 1.4 g |Arlacel 60 (sorbitan |monostearate) 0.7 g |Tween 20 Polyoxethylene |(20) sorbitan |monostearate 1.6 g |Distilled water 94.0 g The lotions were inoculated with both Pseudomonas aeruginosa and Aspergillus niger and incubated at 28° C. At weekly intervals, the lotions were examined for microorganisms by conventional streak-plate methods or by macroscopic observation. The lotions were then reinoculated with the test organisms and reincubated.

Pseudomonas aeruginosa [6] = test: as above; conditions: weekly reinoculation
Description: as §3

- MIC (Pseudomonas aeruginosa [1]; Week 1, 3.3% cutting oil emulsion): 125 to 500 µg/mL (≈ 764 to 3060 µM)
- MIC (Pseudomonas aeruginosa [1]; Week 2, 3.3% cutting oil emulsion): 250 to 500 µg/mL (≈ 1530 to 3060 µM)
- MIC (Pseudomonas aeruginosa [1]; Week 3, 3.3% cutting oil emulsion): 250 to 500 µg/mL (≈ 1530 to 3060 µM)
- MIC (Pseudomonas aeruginosa [1]; Week 4, 3.3% cutting oil emulsion): 250 to 500 µg/mL (≈ 1530 to 3060 µM)
- MIC (Aspergillus niger [3]): 384 to 1920 µg/mL (≈ 2350 to 11700 µM)
- MIC (Proteus vulgaris): 76.8 to 384 µg/mL (≈ 469 to 2350 µM)
- MIC (Bacillus subtilis): 384 to 1920 µg/mL (≈ 2350 to 11700 µM)
- MIC (Aspergillus oryzae): 384 to 1920 µg/mL (≈ 2350 to 11700 µM)
- MIC (Pseudomonas aeruginosa [4]): 384 to 1920 µg/mL (≈ 2350 to 11700 µM)
- MIC (Penicillium piscarium): 384 to 1920 µg/mL (≈ 2350 to 11700 µM)
- MIC (Escherichia coli): 76.8 to 384 µg/mL (≈ 469 to 2350 µM)
- MIC (Aureobasidium pullulans): 76.8 to 384 µg/mL (≈ 469 to 2350 µM)
- MIC (Staphylococcus aureus): 384 to 1920 µg/mL (≈ 2350 to 11700 µM)
Structure (SMILES): CC(=O)C(Cl)C(=O)N(C)C (stereo not shown) [R1=CH3, R2=CH3, 2-chloro-N,N-dimethyl-3-oxobutyramide]
- antimicrobial activity (in words) [2]: high level of activity
- minimum inhibitory concentration effective in preventing microbial growth (Aspergillus niger [5]; Week 1, 28° C.): 1 (1000-2000 mcg/gm)
- minimum inhibitory concentration effective in preventing microbial growth (Aspergillus niger [5]; Week 2, 28° C.): 1 (1000-2000 mcg/gm)
- minimum inhibitory concentration effective in preventing microbial growth (Aspergillus niger [5]; Week 3, 28° C.): 1 (1000-2000 mcg/gm)
- minimum inhibitory concentration effective in preventing microbial growth (Aspergillus niger [5]; Week 4, 28° C.): 1 (1000-2000 mcg/gm)
- minimum inhibitory concentration effective in preventing microbial growth (Pseudomonas aeruginosa [6]; Week 1, 28° C.): 2 (500-1000 mcg/gm)
- minimum inhibitory concentration effective in preventing microbial growth (Pseudomonas aeruginosa [6]; Week 2, 28° C.): 2 (500-1000 mcg/gm)
- minimum inhibitory concentration effective in preventing microbial growth (Pseudomonas aeruginosa [6]; Week 3, 28° C.): 2 (500-1000 mcg/gm)
- minimum inhibitory concentration effective in preventing microbial growth (Pseudomonas aeruginosa [6]; Week 4, 28° C.): 2 (500-1000 mcg/gm)
